Data from ChEMBL document CHEMBL1201862, “PubChem BioAssay data set” (2004).
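Step 1: Grow cells in 96-well plates. Step 2: Expose to compound for 48 hours at 5 concentrations. Step 3: Interpolate endpoints linearly; if unreached, use highest concentration. GI50 is the concentration that inhibits growth by half.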 Active and inactive are the calls of the source. Rule as the data show it: active = GI50 up to about 1.1 µM and inactive = higher.

Experiments:
Assay in all cases: NCI tumour cell line growth inhibition, 48 h
COLO 205 = test system: COLO 205
RPMI-8226 = test system: RPMI-8226
SK-OV-3 = test system: SK-OV-3
SK-MEL-5 = test system: SK-MEL-5
OVCAR-5 = test system: OVCAR-5
SW-620 = test system: SW-620
TK-10 = test system: TK-10
OVCAR-3 = test system: OVCAR-3
T47D = test system: T47D
M14 = test system: M14
SNB-19 = test system: SNB-19
IGROV-1 = test system: IGROV-1
NCI-H460 = test system: NCI-H460
MDA-MB-435 = test system: MDA-MB-435
HT-29 = test system: HT-29
DU-145 = test system: DU-145
SR = test system: SR
NCI/ADR-RES = test system: NCI/ADR-RES
SF-539 = test system: SF-539
KM12 = test system: KM12

Row | SMILES | GI50 (COLO 205) | GI50 (RPMI-8226) | GI50 (SK-OV-3) | GI50 (SK-MEL-5) | GI50 (OVCAR-5) | GI50 (SW-620) | GI50 (TK-10) | GI50 (OVCAR-3) | GI50 (T47D) | GI50 (M14) | GI50 (SNB-19) | GI50 (IGROV-1) | GI50 (NCI-H460) | GI50 (MDA-MB-435) | GI50 (HT-29) | GI50 (DU-145) | GI50 (SR) | GI50 (NCI/ADR-RES) | GI50 (SF-539) | GI50 (KM12)
1 | COP(=O)(O)C(N)Cc1c[nH]c2ccccc12 (stereo unspecified) | > 100 µM (inactive) | > 100 µM (inactive) | > 100 µM (inactive) | > 100 µM (inactive) | > 100 µM (inactive) | > 100 µM (inactive) | > 100 µM (inactive) | > 100 µM (inactive) | > 100 µM (inactive) | > 100 µM (inactive) | > 100 µM (inactive) | > 100 µM (inactive) | > 100 µM (inactive) | > 100 µM (inactive) | > 100 µM (inactive) | > 100 µM (inactive) | > 100 µM (inactive) | > 100 µM (inactive) | – | –
2 | O=C1Oc2ccccc2N/C1=C/C(=O)c1ccc([N+](=O)[O-])cc1 | > 100 µM (inactive) | – | > 100 µM (inactive) | > 100 µM (inactive) | > 100 µM (inactive) | – | > 100 µM (inactive) | > 100 µM (inactive) | > 100 µM (inactive) | > 100 µM (inactive) | > 100 µM (inactive) | > 100 µM (inactive) | > 100 µM (inactive) | > 100 µM (inactive) | > 100 µM (inactive) | > 100 µM (inactive) | > 100 µM (inactive) | > 100 µM (inactive) | > 100 µM (inactive) | > 100 µM (inactive)
3 | CO/C=C(/C(=O)OC)c1ccccc1[C@H]1C[C@@H]1c1ccc(OC)cc1 | 13.1 µM (inactive) | 18.2 µM (inactive) | 17.8 µM (inactive) | 12.4 µM (inactive) | 41.1 µM (inactive) | – | 37.5 µM (inactive) | 16.3 µM (inactive) | 21.1 µM (inactive) | 18.3 µM (inactive) | 53.7 µM (inactive) | 14.3 µM (inactive) | 21.9 µM (inactive) | 7.76 µM (inactive) | 14.9 µM (inactive) | 32.1 µM (inactive) | 8.73 µM (inactive) | 20.2 µM (inactive) | 17 µM (inactive) | 18.4 µM (inactive)
4 | O=C(Nc1ccc2c(c1)oc(=O)c1ccccc12)C(Cl)Cl | 66.2 µM (inactive) | 14.3 µM (inactive) | – | > 100 µM (inactive) | > 100 µM (inactive) | > 100 µM (inactive) | – | 28.8 µM (inactive) | > 100 µM (inactive) | > 100 µM (inactive) | 27.3 µM (inactive) | > 100 µM (inactive) | 27.6 µM (inactive) | > 100 µM (inactive) | 28.1 µM (inactive) | > 100 µM (inactive) | 45 µM (inactive) | > 100 µM (inactive) | 69.7 µM (inactive) | 33.2 µM (inactive)
5 | CC(=O)C1(c2ccccc2)CCCN(C)CC1 (stereo unspecified) | > 100 µM (inactive) | > 100 µM (inactive) | > 100 µM (inactive) | > 100 µM (inactive) | > 100 µM (inactive) | > 100 µM (inactive) | > 100 µM (inactive) | > 100 µM (inactive) | > 100 µM (inactive) | > 100 µM (inactive) | > 100 µM (inactive) | > 100 µM (inactive) | > 100 µM (inactive) | > 100 µM (inactive) | > 100 µM (inactive) | > 100 µM (inactive) | > 100 µM (inactive) | > 100 µM (inactive) | – | > 100 µM (inactive)
6 | COc1cc([C@@]23OC[C@@H]4[C@@H](OC[C@@H]42)c2cc4c(cc23)OCO4)cc(OC)c1OC | < 0.01 µM (active) | – | < 0.01 µM (active) | < 0.01 µM (active) | > 48.2 µM (inactive) | < 0.01 µM (active) | – | < 0.01 µM (active) | 50.8 µM (inactive) | < 0.01 µM (active) | < 0.01 µM (active) | < 0.01 µM (active) | < 0.01 µM (active) | < 0.01 µM (active) | < 0.01 µM (active) | < 0.01 µM (active) | < 0.01 µM (active) | < 0.01 µM (active) | < 0.01 µM (active) | < 0.01 µM (active)
7 | Cc1cc(O)c(C(C)C)cc1C(=S)Nc1ccc(Cl)cc1 | 16.1 µM (inactive) | 8.3 µM (inactive) | 21.9 µM (inactive) | 11.5 µM (inactive) | 15 µM (inactive) | 14.3 µM (inactive) | – | 14.7 µM (inactive) | 11.6 µM (inactive) | – | – | 3.32 µM (inactive) | 11.1 µM (inactive) | 10.6 µM (inactive) | 14.8 µM (inactive) | 17.7 µM (inactive) | 4.95 µM (inactive) | 12.9 µM (inactive) | 14.3 µM (inactive) | 10.1 µM (inactive)
8 | Cc1ccc2c(c1)Nc1ccccc1P2(=O)O | > 100 µM (inactive) | – | > 100 µM (inactive) | > 100 µM (inactive) | > 100 µM (inactive) | > 100 µM (inactive) | > 100 µM (inactive) | > 100 µM (inactive) | > 100 µM (inactive) | > 100 µM (inactive) | > 100 µM (inactive) | > 100 µM (inactive) | > 100 µM (inactive) | > 100 µM (inactive) | > 100 µM (inactive) | > 100 µM (inactive) | > 100 µM (inactive) | > 100 µM (inactive) | > 100 µM (inactive) | > 100 µM (inactive)
9 | COP(=O)(OC)/C(=C\C1=CN(C(c2ccccc2)(c2ccccc2)c2ccccc2)CN1)NC=O | 17.3 µM (inactive) | 15.7 µM (inactive) | 15.9 µM (inactive) | 15.9 µM (inactive) | 17.8 µM (inactive) | 20.4 µM (inactive) | 21.2 µM (inactive) | 16.1 µM (inactive) | 17.6 µM (inactive) | 19.9 µM (inactive) | 20.1 µM (inactive) | 20.6 µM (inactive) | 14 µM (inactive) | 11.1 µM (inactive) | 15 µM (inactive) | 20.2 µM (inactive) | 14.2 µM (inactive) | 15.8 µM (inactive) | – | –
10 | OC1CN2CCS[C@H]2C(O)C1O (stereo partly specified) | > 100 µM (inactive) | > 100 µM (inactive) | > 100 µM (inactive) | > 100 µM (inactive) | > 100 µM (inactive) | > 100 µM (inactive) | > 100 µM (inactive) | > 100 µM (inactive) | > 100 µM (inactive) | > 100 µM (inactive) | > 100 µM (inactive) | > 100 µM (inactive) | > 100 µM (inactive) | > 100 µM (inactive) | > 100 µM (inactive) | > 100 µM (inactive) | > 100 µM (inactive) | > 100 µM (inactive) | – | > 100 µM (inactive)
11 | Cc1ccc(Cc2nn(C)c(=O)n2-n2cccc2)cc1 | > 100 µM (inactive) | > 100 µM (inactive) | > 100 µM (inactive) | > 100 µM (inactive) | > 100 µM (inactive) | > 100 µM (inactive) | > 100 µM (inactive) | > 100 µM (inactive) | > 100 µM (inactive) | > 100 µM (inactive) | > 100 µM (inactive) | > 100 µM (inactive) | > 100 µM (inactive) | > 100 µM (inactive) | > 100 µM (inactive) | > 100 µM (inactive) | > 100 µM (inactive) | > 100 µM (inactive) | – | > 100 µM (inactive)
12 | COCOc1c(C(O[Si](C)(C)C(C)(C)C)c2cnc(Sc3ccccc3)n2C)ccc(OC)c1OC (stereo unspecified) | – | 1.85 µM (inactive) | 2.05 µM (inactive) | 1.82 µM (inactive) | > 100 µM (inactive) | 1.93 µM (inactive) | 4.28 µM (inactive) | 1.7 µM (inactive) | 0.256 µM (active) | – | 2.14 µM (inactive) | 1.97 µM (inactive) | 1.53 µM (inactive) | 1.75 µM (inactive) | 1.93 µM (inactive) | > 100 µM (inactive) | 2.47 µM (inactive) | 1.35 µM (inactive) | 1.97 µM (inactive) | 1.92 µM (inactive)
13 | CO/C(C)=N/CCC1=CCCCC1 | > 100 µM (inactive) | > 100 µM (inactive) | > 100 µM (inactive) | > 100 µM (inactive) | > 100 µM (inactive) | > 100 µM (inactive) | > 100 µM (inactive) | 89.1 µM (inactive) | > 100 µM (inactive) | > 100 µM (inactive) | > 100 µM (inactive) | > 100 µM (inactive) | > 100 µM (inactive) | > 100 µM (inactive) | > 100 µM (inactive) | > 100 µM (inactive) | 0.104 µM (active) | > 100 µM (inactive) | – | > 100 µM (inactive)
14 | CCC1CCN/C(=N/S(=O)(=O)c2cc(C)c(Cl)cc2S)N1 (stereo unspecified) | 39.2 µM (inactive) | 24.2 µM (inactive) | 40.5 µM (inactive) | > 100 µM (inactive) | 22.3 µM (inactive) | 28.7 µM (inactive) | 37.7 µM (inactive) | – | 26.8 µM (inactive) | 35.7 µM (inactive) | 30.2 µM (inactive) | 24.2 µM (inactive) | 8.2 µM (inactive) | 22.9 µM (inactive) | 30.1 µM (inactive) | 43.7 µM (inactive) | 35.4 µM (inactive) | 38.7 µM (inactive) | 29.4 µM (inactive) | –
15 | C[C@]12C[C@@H](OC(=O)[C@]1(C)O)[C@@H]([C@]1(O)CC[C@H]3[C@@H]4C[C@H]5O[C@]56C[C@H]5O[C@H]5C(=O)[C@]6(C)[C@H]4CC[C@@]31C)C2 | > 50 µM (inactive) | > 50 µM (inactive) | > 50 µM (inactive) | > 50 µM (inactive) | > 50 µM (inactive) | > 50 µM (inactive) | > 50 µM (inactive) | – | > 50 µM (inactive) | > 50 µM (inactive) | > 50 µM (inactive) | > 50 µM (inactive) | > 50 µM (inactive) | > 50 µM (inactive) | > 50 µM (inactive) | > 50 µM (inactive) | 14.7 µM (inactive) | > 50 µM (inactive) | > 50 µM (inactive) | > 50 µM (inactive)
